PMC9797021 (ACS applied bio materials, 2022)

How the values were obtained:
[1] = test system: SARS-CoV-2 spike protein, S1 subunit; format: binding; settings: pH 7.4
SARS-CoV-2 RBD = settings: cited from earlier work

With ACE2 the “SPR angle shift of ACE2/spike protein binding” value [1] was 0.147±0.009 degrees.
In the case of “residues 21–43 of the human ACE2 α 1-helix”, the “affinity compared with full-length ACE2 binding to RBD” value (SARS-CoV-2 RBD) is listed as “comparable to that of the full-length ACE2 binding to RBD”.
